# From patent publication US6737383B1, “Herbicidal oxadiazolidines” (priority 1999, dated 2004)
# Assays:
# giant foxtail = test: Test B pre/postemergence giant foxtail; format: in vivo, Setaria faberii
# In short: (§1)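 Herbicidal effect was estimated by eye on a ten-point control scale after plants spent twelve to sixteen days in a greenhouse following soil or foliar treatment. Foliar sprays targeted plants at one to four leaves; all doses were formulated in a non-phytotoxic solvent with surfactant.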
# morningglory = test: Test B pre/postemergence morningglory; format: in vivo, Ipomoea hederacea
# In short: as §1
# rice = test: Test B flood test rice; format: in vivo, Oryza sativa
# In short: (§2)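 Flood test on plants grown to the 2-leaf stage; treated plants kept in greenhouse twelve to sixteen days, then visually rated against controls on a 0 (no effect) to 10 (complete control) scale.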
# duck salad = test: Test B flood test duck salad; format: in vivo, Heteranthera limosa
# In short: as §2
# [1] = Postemergence, Rate 31 g/ha, visual rating, scale 0 to 10 (0 no effect, 10 complete control)
# [2] = Postemergence, Rate 250 g/ha, scale 0 to 10
# [3] = Preemergence, Rate 62 g/ha, scale of 0 to 10 where 0 is no effect and 10 is complete control
# [4] = Preemergence, Rate 125 g/ha, scale of 0 to 10 where 0 is no effect and 10 is complete control
# [5] = Preemergence, Rate 250 g/ha, scale 0 to 10, 0 is no effect, 10 is complete control
# [6] = Rate 62 g/ha, Postemergence, scale 0 to 10 (0 no effect, 10 complete control)
# [7] = Rate 125 g/ha, Postemergence, scale 0 to 10, 0 is no effect, 10 is complete control
# [8] = Rate 31 g/ha, Pre-emergence section (flood test species), scale 0 to 10
# [9] = Rate 62 g/ha, flood test species, Pre-emergence, visual evaluation after twelve to sixteen days
# [10] = Rate 125 g/ha, under heading Pre-emergence, flood test species, visual evaluation after twelve to sixteen days
# [11] = Rate 250 g/ha, Pre-emergence (flood test species), scale 0 to 10, 0 is no effect, 10 is complete control
# [12] = Postemergence, Rate 125 g/ha, scale 0 to 10, 0 is no effect, 10 is complete control
# [13] = Preemergence, Rate 250 g/ha, scale of 0 to 10 where 0 is no effect and 10 is complete control
# [14] = Preemergence, Rate 500 g/ha, scale of 0 to 10 where 0 is no effect and 10 is complete control
# [15] = Rate 500 g/ha, Postemergence, scale 0 to 10, 0 no effect, 10 complete control
# [16] = Rate 62 g/ha, headed Pre-emergence (flood test species), scale 0 to 10 (0 no effect, 10 complete control)
# [17] = Rate 125 g/ha, Pre-emergence, flood test species, scale 0 to 10 where 0 is no effect and 10 is complete control
# [18] = Rate 250 g/ha, Pre-emergence, flood-test species, scale 0 to 10, 0 is no effect, 10 is complete control
# [19] = Rate 500 g/ha, Pre-emergence, flood test species, scale 0 to 10 (0 no effect, 10 complete control)
# [20] = Rate 125 g/ha, Postemergence, scale of 0 to 10 where 0 is no effect and 10 is complete control
# [21] = Rate 125 g/ha, Preemergence, scale of 0 to 10 where 0 is no effect and 10 is complete control
# [22] = Rate 250 g/ha, Postemergence, scale of 0 to 10 where 0 is no effect and 10 is complete control
# [23] = Postemergence, Rate 62 g/ha, scale 0 to 10, 0 is no effect, 10 is complete control
# [24] = Postemergence, Rate 250 g/ha, scale 0 to 10, 0 no effect, 10 complete control
# [25] = Preemergence, Rate 62 g/ha, scale 0 to 10, 0 is no effect, 10 is complete control
# [26] = Preemergence, Rate 125 g/ha, scale 0 to 10 (0 no effect, 10 complete control)
# [27] = Preemergence, Rate 500 g/ha, scale 0 (no effect) to 10 (complete control)
# [28] = Rate 125 g/ha, Postemergence, scale 0 to 10, 0 no effect, 10 complete control
# [29] = Rate 500 g/ha, Postemergence, 0 to 10 scale (0 no effect, 10 complete control)
# [30] = Rate 125 g/ha, Postemergence section (flood test species), scale 0 to 10, 0 no effect, 10 complete control
# [31] = Rate 250 g/ha, headed Pre-emergence (flood test species), scale 0 to 10 (0 no effect, 10 complete control)
# [32] = Rate 500 g/ha, Postemergence section of Table B, 0 to 10 scale (0 no effect, 10 complete control)
# [33] = Rate 500 g/ha, headed Pre-emergence (flood test species), scale 0 to 10 (0 no effect, 10 complete control)
# [34] = Rate 1000 g/ha, Pre-emergence (as headed), scale 0 to 10
# [35] = flood test, listed under Postemergence, Rate 250 g/ha, scale 0 to 10, 0 no effect, 10 complete control
# [36] = Preemergence, Rate 62 g/ha, scale 0 to 10 (0 no effect, 10 complete control)
# [37] = Rate 62 g/ha, Postemergence, scale of 0 to 10 where 0 is no effect and 10 is complete control
# [38] = Postemergence (flood test), Rate 125 g/ha, scale 0 to 10, 0 is no effect, 10 is complete control
# [39] = Rate 62 g/ha, Postemergence (flood test species), scale of 0 to 10 where 0 is no effect and 10 is complete control
# [40] = Rate 500 g/ha, listed under Postemergence (flood test species), scale 0 to 10, 0 no effect, 10 complete control
smiles,measurement,setting,value
CC(C)N(C(=O)n1oc(=O)n(CC2=NOCCC2)c1=O)c1ccc(Cl)cc1 [Compound 450],Giant foxtail plant response rating,giant foxtail; [1],0
same,Giant foxtail plant response rating,giant foxtail; [2],7
same,Giant foxtail plant response rating,"giant foxtail; Preemergence, Rate 31 g/ha, visual rating, scale 0 to 10 (0 no effect, 10 complete control)",0
same,"Plant response rating, Giant foxtail",giant foxtail; [3],2
same,"Plant response rating, Giant foxtail",giant foxtail; [4],8
same,Giant foxtail plant response rating,giant foxtail; [5],9
same,Giant foxtail plant response rating,giant foxtail; [6],2
same,Giant foxtail plant response rating,giant foxtail; [7],5
same,Morningglory plant response rating,morningglory; [1],0
same,Morningglory plant response rating,morningglory; [2],1
same,"Plant response rating, Morningglory",morningglory; [3],0
same,"Plant response rating, Morningglory",morningglory; [4],0
same,Morningglory plant response rating,morningglory; [5],0
same,Morningglory plant response rating,morningglory; [6],0
same,Morningglory plant response rating,morningglory; [7],0
same,Rice plant response rating,rice; [8],0
same,"Plant response rating, Rice (0 to 10 scale, 0 is no effect, 10 is complete control)",rice; [9],0
same,"Rice plant response rating (0 to 10 scale, 0 is no effect, 10 is complete control)",rice; [10],0
same,Rice plant response rating,rice; [11],0
same,Ducksalad plant response rating,duck salad; [8],0
same,"Plant response rating, Ducksalad (0 to 10 scale, 0 is no effect, 10 is complete control)",duck salad; [9],0
same,"Ducksalad plant response rating (0 to 10 scale, 0 is no effect, 10 is complete control)",duck salad; [10],0
same,Ducksalad plant response rating,duck salad; [11],0
Cc1c(-n2c(=O)on(C(=O)N(c3ccc(F)cc3F)C(C)C)c2=O)ccc2ccccc12 [Compound 337],"Plant response rating, Giant foxtail",giant foxtail; [12],0
same,Giant foxtail plant response rating,giant foxtail; [3],0
same,Giant foxtail plant response rating (0 to 10 scale),"giant foxtail; Preemergence, Rate 125 g/ha",0
same,Giant foxtail plant response rating,giant foxtail; [13],2
same,Giant foxtail plant response rating,giant foxtail; [14],9
same,Giant foxtail plant response rating,giant foxtail; [6],0
same,"Plant response rating, Giant foxtail",giant foxtail; [15],0
same,"Plant response rating, Morningglory",morningglory; [12],0
same,Morningglory plant response rating,morningglory; [3],0
same,Morningglory plant response rating (0 to 10 scale),"morningglory; Preemergence, Rate 125 g/ha",0
same,Morningglory plant response rating,morningglory; [13],0
same,Morningglory plant response rating,morningglory; [14],0
same,Morningglory plant response rating,morningglory; [6],0
same,"Plant response rating, Morningglory",morningglory; [15],0
same,Rice plant response rating,rice; [16],0
same,Rice plant response rating,rice; [17],0
same,Rice plant response rating,rice; [18],0
same,Rice plant response rating,rice; [19],0
same,Ducksalad plant response rating,duck salad; [16],0
same,Ducksalad plant response rating,duck salad; [17],0
same,Ducksalad plant response rating,duck salad; [18],0
same,Ducksalad plant response rating,duck salad; [19],0
Cc1ccccc1-n1c(=O)on(C(=O)N(c2ccc(C(C)(C)C)cc2)C(C)C)c1=O [Compound 270],Giant foxtail plant response rating,giant foxtail; [3],0
same,Giant foxtail plant response rating,giant foxtail; [13],0
same,"Plant response rating, Giant foxtail",giant foxtail; [14],0
same,Giant foxtail plant response rating,giant foxtail; [20],0
same,Giant foxtail plant response rating,giant foxtail; [21],0
same,"Plant response rating, Giant foxtail",giant foxtail; [22],0
same,Giant foxtail plant response rating,giant foxtail; [15],0
same,Morningglory plant response rating,morningglory; [3],0
same,Morningglory plant response rating,morningglory; [13],0
same,"Plant response rating, Morningglory",morningglory; [14],0
same,Morningglory plant response rating,morningglory; [20],0
same,Morningglory plant response rating,morningglory; [21],0
same,"Plant response rating, Morningglory",morningglory; [22],0
same,Morningglory plant response rating,morningglory; [15],0
same,Rice plant response rating,rice; [16],0
same,Rice plant response rating,rice; [17],0
same,Rice plant response rating,rice; [18],0
same,Rice plant response rating,rice; [19],0
same,Ducksalad plant response rating,duck salad; [16],0
same,Ducksalad plant response rating,duck salad; [17],0
same,Ducksalad plant response rating,duck salad; [18],0
same,Ducksalad plant response rating,duck salad; [19],0
COc1ccc(-n2c(=O)on(C(=O)N(c3ccc(F)cc3)C(C)C)c2=O)c(C)c1 [Compound 35],Giant foxtail plant response rating,giant foxtail; [23],0
same,Giant foxtail plant response rating,giant foxtail; [24],1
same,"Plant response rating, Giant foxtail",giant foxtail; [25],3
same,"Plant response rating, Giant foxtail",giant foxtail; [26],7
same,"Plant response rating, Giant foxtail",giant foxtail; [13],10
same,Giant foxtail plant response rating,giant foxtail; [27],10
same,Giant foxtail plant response rating,giant foxtail; [28],0
same,Giant foxtail plant response rating,giant foxtail; [29],7
same,Morningglory plant response rating,morningglory; [23],4
same,Morningglory plant response rating,morningglory; [24],8
same,"Plant response rating, Morningglory",morningglory; [25],0
same,"Plant response rating, Morningglory",morningglory; [26],0
same,"Plant response rating, Morningglory",morningglory; [13],0
same,Morningglory plant response rating,morningglory; [27],0
same,Morningglory plant response rating,morningglory; [28],7
same,Morningglory plant response rating,morningglory; [29],8
same,Rice plant response rating,rice; [23],0
same,Rice plant response rating,rice; [30],0
same,Rice plant response rating,rice; [17],0
same,Rice plant response rating,rice; [31],0
same,Rice plant response rating,rice; [32],0
same,"Plant response rating, Rice",rice; [33],0
same,Rice plant response rating,rice; [34],0
same,Rice plant response rating,rice; [35],0
same,Ducksalad plant response rating,duck salad; [23],0
same,Ducksalad plant response rating,duck salad; [30],0
same,Ducksalad plant response rating,duck salad; [17],0
same,Ducksalad plant response rating,duck salad; [31],0
same,Ducksalad plant response rating,duck salad; [32],0
same,"Plant response rating, Ducksalad",duck salad; [33],0
same,Ducksalad plant response rating,duck salad; [34],0
same,Ducksalad plant response rating,duck salad; [35],0
CC(C)N(C(=O)n1oc(=O)n(C2CCC2)c1=O)c1ccc(Cl)cc1 [Compound 349],"Plant response rating, Giant foxtail",giant foxtail; [12],0
same,"Plant response rating, Giant foxtail",giant foxtail; [36],8
same,Giant foxtail plant response rating (0 to 10 scale),"giant foxtail; Preemergence, Rate 125 g/ha",9
same,Giant foxtail plant response rating,giant foxtail; [13],10
same,Giant foxtail plant response rating,giant foxtail; [14],10
same,Giant foxtail plant response rating,giant foxtail; [37],0
same,"Plant response rating, Giant foxtail",giant foxtail; [15],9
same,"Plant response rating, Morningglory",morningglory; [12],5
same,"Plant response rating, Morningglory",morningglory; [36],0
same,Morningglory plant response rating (0 to 10 scale),"morningglory; Preemergence, Rate 125 g/ha",0
same,Morningglory plant response rating,morningglory; [13],0
same,Morningglory plant response rating,morningglory; [14],0
same,Morningglory plant response rating,morningglory; [37],5
same,"Plant response rating, Morningglory",morningglory; [15],10
same,"Plant response rating, Rice",rice; [38],0
same,Rice plant response rating,rice; [39],0
same,"Plant response rating, Rice",rice; [40],0
same,"Plant response rating, Ducksalad",duck salad; [38],0
same,Ducksalad plant response rating,duck salad; [39],0
same,"Plant response rating, Ducksalad",duck salad; [40],4
CC(C)N(C(=O)n1oc(=O)n(Cc2cccs2)c1=O)c1ccc(F)cc1 [Compound 80],Giant foxtail plant response rating,giant foxtail; [23],0
same,Giant foxtail plant response rating,giant foxtail; [24],3
same,Giant foxtail plant response rating,giant foxtail; [36],6
same,"Plant response rating, Giant foxtail",giant foxtail; [26],8
same,"Plant response rating, Giant foxtail",giant foxtail; [13],8
same,Giant foxtail plant response rating,giant foxtail; [27],9
same,Giant foxtail plant response rating,giant foxtail; [28],2
same,Giant foxtail plant response rating,giant foxtail; [15],7
same,Morningglory plant response rating,morningglory; [23],7
same,Morningglory plant response rating,morningglory; [24],10
same,Morningglory plant response rating,morningglory; [36],0
same,"Plant response rating, Morningglory",morningglory; [26],0
same,"Plant response rating, Morningglory",morningglory; [13],0
same,Morningglory plant response rating,morningglory; [27],0
same,Morningglory plant response rating,morningglory; [28],8
same,Morningglory plant response rating,morningglory; [15],10
same,Rice plant response rating,rice; [23],0
same,Rice plant response rating,rice; [30],0
same,Rice plant response rating,rice; [40],2
same,Rice plant response rating,rice; [35],0
same,Ducksalad plant response rating,duck salad; [23],0
same,Ducksalad plant response rating,duck salad; [30],0
same,Ducksalad plant response rating,duck salad; [40],2
same,Ducksalad plant response rating,duck salad; [35],0
